Experimental data reported in article PMC12073497 (Molecules, 2025).
Several values for one entry are separate records, joined by “and”; a condition that tells them apart may be missing. Equal entries are not always repeated.

What was measured:
[1] = DPPH radical scavenging (antioxidant) assay; type: biochemical; conditions: means of triplicate ± SEM
Description: Oxidative stress is an imbalance between in vivo generated reactive oxygen/ nitrogen species (ROS/NOS) and the cellular antioxidant defenses. Oxidative stress is connected with more than one hundred illnesses that include cardiovascular, cancer, neurogenerative diseases, hypertension, atherosclerosis, and diabetes mellitus. Antioxidants decrease the cellular level of ROS and thus play a significant role in preventing related diseases. Antioxidants react with ROS through three possible mechanisms: (i) hydrogen transfer, (ii) electron transfer, and (iii) metal chelation. DPPH radical scavenging assay relies on the electron/hydrogen atom transfer (mixed) mechanism. The prepared crown ethers with variable cavity sizes 10a–d, parent precursor (FABE) 8, and the novel intermediate 7 were examined for antioxidant behavior using the DPPH radical scavenging protocol, following the literature, and the results are shown in Table 1.
Gulcin et al. proposed a method for the free radical scavenging activity (antioxidant activity) using 1,1-diphenyl-2-picryl-hydrazil (DPPH). An ethanolic solution of DPPH was prepared at a concentration of 0.3 mM. In the next step, different concentrations of each sample were prepared in ethanol, ranging from (62.5–500 μg) by mixing 5 microliters of each sample with 95 µL of DPPH solution. The resulting mixture was transferred to 96-well plates and incubated for 30 min at 37 °C. A microtiter plate reader (Spectramax plus 384 Molecular Device, San Jose, CA, USA) was used to measure the absorbance at 515 nm, and the radical scavenging activity (%) was compared with the methanol-treated control. The standard for the protocol was Butyl hydroxyanisole (BHA). DPPH scavenging effect (%) = Ac − As/Ac × 100, where Ac is the absorbance of the control (DMSO-treated), and As is the absorbance of the sample.

[2] = biological target: α-glucosidase (Sigma, type III, from yeast) (Saccharomyces cerevisiae, UniProt P53341); test: α-Glucosidase inhibition assay; type: biochemical; conditions: means of triplicate ± SEM
Sequence of α-glucosidase (Sigma, type III, from yeast) (P53341 whole entry): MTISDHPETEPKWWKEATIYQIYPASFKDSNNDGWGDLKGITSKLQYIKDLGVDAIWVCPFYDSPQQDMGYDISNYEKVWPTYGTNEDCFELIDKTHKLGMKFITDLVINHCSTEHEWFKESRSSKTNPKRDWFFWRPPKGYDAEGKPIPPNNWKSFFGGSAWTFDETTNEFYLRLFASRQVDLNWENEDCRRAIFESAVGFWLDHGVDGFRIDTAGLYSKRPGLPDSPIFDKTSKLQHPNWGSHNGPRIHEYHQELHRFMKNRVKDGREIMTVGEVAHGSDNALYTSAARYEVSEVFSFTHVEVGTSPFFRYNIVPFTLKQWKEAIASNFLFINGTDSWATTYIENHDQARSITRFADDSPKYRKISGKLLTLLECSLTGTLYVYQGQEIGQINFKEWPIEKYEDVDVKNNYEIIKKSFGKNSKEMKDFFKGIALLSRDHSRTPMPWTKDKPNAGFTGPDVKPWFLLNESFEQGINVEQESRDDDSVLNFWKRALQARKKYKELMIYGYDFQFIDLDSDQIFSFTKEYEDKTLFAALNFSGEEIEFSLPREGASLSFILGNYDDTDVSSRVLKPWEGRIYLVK
Description: In this background, according to the standard protocol [51], we examined the prepared crown ether molecules 10a–d along with parent precursor FABE 8 and the novel intermediate 7 for their in vitro α-glucosidase inhibition potential.
The protocol for the α-Glucosidase inhibition assay is built on the formation of product as a result of substrate breakdown, detected by absorbance measurement [69]. In the first step, an enzyme α-glucosidase (Sigma, type III, from yeast) was prepared in buffer solution A (0.1 mol/L potassium phosphate, 3.2 mmol/L-MgCl2, pH = 6.8) (0.1 units/mL) mixed with p-nitrophenyl-α-D-glucopyranoside dissolved to obtain the desired concentration of substrate of 6 mmol/L. Another Buffer solution B (102 µL) was prepared by mixing (0.5 M KH2PO4, 16 mmol/L-MgCl2, pH = 6.8) along with 120 µL of sample solution (0.6 mg/mL in dimethyl sulfoxide), 282 µL of water and 200 µL of substrate. In the next step, 200 µL of enzyme was added in the same reaction mixture, incubated for 5 min at 37 °C. […] The activity of enzyme inhibition was measured at 410 nm by its absorbance. […] The inhibition% is equal to Ac − As/Ac × 100, where Ac is the absorbance (control), and As is the absorbance (Sample).

| Compound | IC50 [1] | IC50 [2] [µM] |
| --- | --- | --- |
| CCCCOC(=O)/C(CCC=C(C)C)=C1\[C@@H](OC(C)=O)C[C@@]2(C)[C@@H]1CC(O)[C@@H]1[C@@]3(C)CCC(O)[C@@H](C)C3CC[C@@]12C (some centres unmarked) [Compound 8, Butyl(2Z)-2-[(4a,8a,14b,16b)-16-(acetyloxy)-3,11-dihydroxy-4,8,10,14-tetramethylgonan-17-ylidene]-6-methylhept-5-enoate] | 54.6 ± 0.2 µM |  |
| CCCCOC(=O)C(CCC=C(C)C)=C1C(OC(C)=O)CC2(C)C1CC1OCCOCCOC3CCC4(C)C(CCC2(C)C14)C3C [Compound 10a, Butyl(2Z)-2-[(3aS,16S,17aS,17bS,18S)-16-(acetyloxy)-3a,17a,17b,18-tetramethyloctahydro-3,6 methanocyclopenta[3,4]naptho[1,8hi][1,4,7]trioxyacylotridecin-15(1H)-ylidene]-6-methylhept-5-enoate] | 65.5 ± 0.3 µM |  |
| COc1ccc(O)cc1C(C)(C)C [Butylated hydroxyanisole, reference compound] | 44.2 ± 0.3 µM |  |
| CCCCOC(O)(OC(=NC1CCCCC1)NC1CCCCC1)/C(CCC=C(C)C)=C1\[C@@H](OC(C)=O)C[C@@]2(C)[C@H]1C[C@@H](O)[C@H]1[C@@]3(C)CC[C@@H](O)[C@@H](C)[C@@H]3CC[C@@]12C (some centres unmarked) [Intermediate 7] | 32.9 ± 0.4 µM |  |
| CCCCOC(=O)/C(CCC=C(C)C)=C1/C2CC3OCCOCCOCCOC4CC[C@@]5(C)C(CC[C@@](C)(C35)[C@@]2(C)C[C@@H]1OC(C)=O)[C@@H]4C (stereo partly drawn) [Compound 10b, Butyl(2Z)-2-[(3aS,19S,20aS,20bS,21S)-19-(acetyloxy)-3a,20a,20b,21-tetramethylicosahydro-3,6-methanocyclopenta[3,4]naphtho[1,8-kl][1,4,7,10]tetraoxacyclohexadecin-18(1H)-ylidene]-6-methylhept-5-enoate] | 22.5 µM and 32.1 µM |  |
| Butyl(2Z)-2-[(3aS,27S,28aS,28bS,29S)-27-(acetyloxy)-3a,28a,28b,29-tetramethyltetracosahydro-3,6-methanocyclopenta[3,4] naphtho[1,8-st][1,3,6,9,12,15,18]heptaoxacyclotetracosin-26(1H)-ylidene]-6- methylhept-5-enoate [Compound 10d] | 45.4 ± 0.9 µM | 54.3 ± 0.1 |
| CCCCOC(=O)/C(CCC=C(C)C)=C1/C2CC3OCCOCCOCCOCCOC4CC[C@@]5(C)C(CC[C@@](C)(C35)[C@@]2(C)C[C@@H]1OC(C)=O)[C@@H]4C (stereo partly drawn) [Compound 10c, Butyl(2Z)-2-[(3aS,22S,23aS,23bS,24S)-22-(acetyloxy)-3a,23a,23b,24-tetramethyldocosahydro-3,6-methanocyclopenta[3,4]naphtho[1,8-no][1,4,7,10,13]pentaoxacyclononadecin-21(1H)-ylidene]-6-methylhept-5-enoate] | 32.1 µM and 22.5 µM |  |
